Values quoted from earlier work in patent US10314836B2, “Quinoline carboxamides for use in the treatment of multiple myeloma” (Active Biotech AB, priority 2014, dated 2019).

Tested on: castrate resistant prostate cancer (CRPC) metastatic to the bone
Conditions: oral treatment

In the case of COc1cccc2c1c(O)c(C(=O)N(C)c1ccc(C(F)(F)F)cc1)c(=O)n2C [tasquinimod, 4-hydroxy-5-methoxy-N,1-dimethyl-2-oxo-N-[4-(trifluoromethyl)phenyl]-1,2-dihydroquinoline-3-carboxamide], the “effect on overall survival” value is listed as “lack a sufficient effect on overall survival”.
